Data reported in patent US8067445B2, “N,N-disubstituted aminoalkylbiphenyl antagonists of prostaglandin D2 receptors” (Panmira Pharmaceuticals, LLC, priority 2008, dated 2011).

Tests used:
[1] = molecular target: T1, human DP1 receptor (Homo sapiens, UniProt Q13258); experiment: DP1 radioligand binding assay ([3H]BWA868C, platelet membranes); conditions: [3H]BWA868C binding, human platelet membranes; read-out: hDP1
T1 construct: tissue Biological Specialty Corporation; host or cells: human platelet membranes
T1 sequence (Q13258 1-359): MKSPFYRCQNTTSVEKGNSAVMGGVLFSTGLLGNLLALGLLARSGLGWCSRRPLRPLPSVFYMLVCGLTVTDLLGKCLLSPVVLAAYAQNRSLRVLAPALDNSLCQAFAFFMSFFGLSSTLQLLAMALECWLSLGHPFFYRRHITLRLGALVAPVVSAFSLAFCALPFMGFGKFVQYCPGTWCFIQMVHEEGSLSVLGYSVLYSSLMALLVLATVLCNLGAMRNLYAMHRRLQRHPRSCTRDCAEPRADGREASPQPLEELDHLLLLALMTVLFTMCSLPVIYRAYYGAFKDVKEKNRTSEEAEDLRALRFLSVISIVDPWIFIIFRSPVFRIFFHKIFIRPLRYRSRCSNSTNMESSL
Method: The ability of a compound to bind to the human DPI receptor was evaluated via a radioligand membrane binding assay using the DP1 selective synthetic ligand [^311]BWA868C. Packed human platelets (Biological Specialty Corporation), were resuspended in 6 volumes of Hepes/HBSS buffer (10 mM Hepes, 1 mM DTT in Hanks Balanced Salt Solution (HBSS)), lysed and centrifuged at 75,000×g to pellet the membranes. Membranes were resuspended in Hepes/HBSS buffer to approximately 12 mg protein/ml. Membranes (20 μg protein/well) are incubated in 96-well plates with 2 nM [^3H]BWA868C and test compound in Assay Buffer (50 mM Hepes, 10 mM MnCl2, 1 mM EDTA, plus or minus 0.2% human serum albumin, pH 7.4) for 60 minutes at room temperature. The reactions are terminated by rapid filtration through Whatman GF/C glass fibre filter plates. The filter plates were pre-soaked in 0.33% polyethylenimine for 30 minutes at room temperature then washed in Wash Buffer (50 mM Hepes, 0.5 M NaCl pH 7.4) prior to harvesting. After harvesting, the filter plates are washed 3 times with 1 ml cold Wash Buffer then dried. Scintillant is then added to the plates and the radioactivity retained on the filters is determined on a Packard TopCount (Perkin Elmer). Specific binding is determined as total radioactive binding minus non-specific binding in the presence of 10 μM BW A868C. IC50s were determined using GraphPad prism analysis of drug titration curves.

[2] = molecular target: T2, human DP2 receptor (Homo sapiens, UniProt Q9Y5Y4); experiment: DP2/CRTH2 radioligand binding assay ([3H]PGD2); conditions: [3H]PGD2 binding, membranes of HEK293 cells expressing human DP2; read-out: hDP2
T2 construct: expressed in transfected cells
T2 sequence (Q9Y5Y4 1-395): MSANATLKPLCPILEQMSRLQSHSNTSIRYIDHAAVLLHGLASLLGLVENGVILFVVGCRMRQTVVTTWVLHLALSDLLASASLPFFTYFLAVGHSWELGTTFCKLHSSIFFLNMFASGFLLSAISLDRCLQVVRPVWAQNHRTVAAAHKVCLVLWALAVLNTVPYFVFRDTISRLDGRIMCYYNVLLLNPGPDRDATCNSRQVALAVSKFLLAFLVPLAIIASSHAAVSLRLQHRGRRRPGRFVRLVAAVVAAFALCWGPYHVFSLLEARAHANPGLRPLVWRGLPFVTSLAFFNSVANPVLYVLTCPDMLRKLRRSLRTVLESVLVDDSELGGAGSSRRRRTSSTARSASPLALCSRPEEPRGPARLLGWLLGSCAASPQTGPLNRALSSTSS
In short: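 Membranes from HEK293 cells stably expressing recombinant human DP2 incubated 60 min at room temperature with 1 nM [3H]PGD2 and compound in pH 7.4 Hepes/MnCl2/EDTA buffer, ± 0.2% human serum albumin. Bound radioactivity measured after filtration; non-specific binding defined with 10 μM PGD2. IC50 from titration curves.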

Row | Structure (SMILES) | IC50 [1] [µM] | IC50 [2] [µM]
1 | COc1ccc(CC(=O)O)cc1-c1ccc(C(F)(F)F)cc1CN(C(C)=O)[C@@H]1c2ccccc2C[C@@H]1O [Compound 1-15, (2′-{[Acetyl-((1R,2S)-2-hydroxy-indan-1-yl)-amino]-methyl}-6-methoxy-4′-trifluoromethyl-biphenyl-3-yl)-acetic acid] | 1 to 30 | 1 to 30
2 | COc1ccc(CC(=O)O)cc1-c1ccc(C(F)(F)F)cc1CN(C(C)=O)[C@@H]1c2ccccc2C[C@@H]1OC [Compound 1-16, (2′-{[Acetyl-((1R,2S)-2-methoxy-indan-1-yl)-amino]-methyl}-6-methoxy-4′-trifluoromethyl-biphenyl-3-yl)-acetic acid] | 1 to 30 | 1 to 30
3 | CCN(C(C)=O)C(C)c1cc(C(F)(F)F)ccc1-c1cc(CC(=O)O)ccc1OC (stereo not shown) [Compound 1-22, {2′-[1-(Acetyl-ethyl-amino)-ethyl]-6-methoxy-4′-trifluoromethyl-biphenyl-3-yl}-acetic acid] | 1 to 30 | 1 to 30
4 | COc1ccc(CC(=O)O)cc1-c1ccc(C(=O)O)cc1CN(CC(F)(F)F)C(C)=O [Compound 1-37, 2-{[Acetyl-(2,2,2-trifluoro-ethyl)-amino]-methyl}-5′-carboxymethyl-2′-methoxy-biphenyl-4-carboxylic acid] | 1 to 30 | 1 to 30
5 | CCN(Cc1cc(C(F)(F)F)ccc1-c1cc(C(F)(F)C(=O)O)ccc1OC)C(C)=O [Compound 1-91, {2′-[(Acetyl-ethyl-amino)-methyl]-6-methoxy-4′-trifluoromethyl-biphenyl-3-yl}-difluoro-acetic acid] | 1 to 30 | 1 to 30
6 | COc1ccc(CC(=O)O)cc1-c1ccc(C(F)(F)F)cc1CN(C(C)=O)[C@@H](C)[C@H](O)c1ccccc1 [Compound 1-104, (2′-{[Acetyl-((1S,2R)-2-hydroxy-1-methyl-2-phenyl-ethyl)-amino]-methyl}-6-methoxy-4′-trifluoromethyl-biphenyl-3-yl)-acetic acid] | 1 to 30 | 1 to 30
7 | CCN(Cc1cc(C(F)(F)F)ccc1-c1cc(C(C)(C)C(=O)O)ccc1OC)C(C)=O [Compound 1-115, 2-{2′-[(Acetyl-ethyl-amino)-methyl]-6-methoxy-4′-trifluoromethyl-biphenyl-3-yl}-2-methyl-propionic acid] | 1 to 30 | > 30
8 | CCN(Cc1cc(C(F)(F)F)ccc1-c1cc(Cl)cc(CC(=O)O)c1)C(=O)C1CC1 [Compound 1-135, {5-Chloro-2′-[(cyclopropanecarbonyl-ethyl-amino)-methyl]-4′-trifluoromethyl-biphenyl-3-yl}-acetic acid] | 1 to 30 | < 0.3
9 | CCCN/C(=N\C#N)N(CC)Cc1cc(C(F)(F)F)ccc1-c1cc(CC(=O)O)ccc1OC [Compound 1-145, [2′-(N′-Cyano-N-ethyl-N″-propyl-guanidinomethyl)-6-methoxy-4′-trifluoromethyl-biphenyl-3-yl]-acetic acid] | 1 to 30 | < 0.3
10 | CCN(Cc1cc(C(F)(F)F)ccc1-c1cc(CC(=O)O)ccc1OC)/C(=N/C#N)NCC1CC1 [Compound 1-146, [2′-(N′-Cyano-N″-cyclopropylmethyl-N-ethyl-guanidinomethyl)-6-methoxy-4′-trifluoromethyl-biphenyl-3-yl]-acetic acid] | 1 to 30 | < 0.3
11 | CCN(Cc1cc(C(F)(F)F)ccc1-c1cc(CC(=O)O)ccc1OC)/C(=N/C#N)NCc1ccccn1 [Compound 1-147, [2′-(N′-Cyano-N-ethyl-N″-pyridin-2-ylmethyl-guanidinomethyl)-6-methoxy-4′-trifluoromethyl-biphenyl-3-yl]-acetic acid] | 1 to 30 | < 0.3
12 | CCN(Cc1cc(C(F)(F)F)ccc1-c1cc(CC(=O)O)ccc1OC)C(=O)Cn1cccn1 [Compound 1-148, (2′-{[Ethyl-(2-pyrazol-1-yl-acetyl)-amino]-methyl}-6-methoxy-4′-trifluoromethyl-biphenyl-3-yl)-acetic acid] | 1 to 30 | < 0.3
13 | CCN(Cc1cc(F)ccc1-c1cc(CC(=O)O)ccc1OC)C(=O)NCc1ccccc1 [Compound 1-187, [2′-(3-Benzyl-1-ethyl-ureidomethyl)-4′-fluoro-6-methoxy-biphenyl-3-yl]-acetic acid] | 1 to 30 | –
14 | O=C(O)CCn1c2c(c3ccccc31)C[C@H](NS(=O)(=O)c1ccc(F)cc1)CC2 [Ramatroban, reference compound] | 1 to 30 | –

Further lines, results first:

Row | IC50 [1] [µM] | IC50 [2] [µM] | Structure (SMILES)
15 | 1 to 30 | 1 to 30 | O=C(O)Cc1ccc(F)c(-c2ccc(C(F)(F)F)cc2CN(CC(F)(F)F)C(=O)OCc2ccccc2)c1 [Compound 1-49, (2′-{[Benzyloxycarbonyl-(2,2,2-trifluoro-ethyl)-amino]-methyl}-6-fluoro-4′-trifluoromethyl-biphenyl-3-yl)-acetic acid]
16 | 1 to 30 | 1 to 30 | COc1ccc(CC(=O)O)cc1-c1ccc(C(F)(F)F)cc1CN(CCc1ccccc1)S(C)(=O)=O [Compound 1-101, {2′-[(Methanesulfonyl-phenethyl-amino)-methyl]-6-methoxy-4′-trifluoromethyl-biphenyl-3-yl}-acetic acid]
17 | 1 to 30 | 0.3 to 1 | CCN(Cc1cc(C(F)(F)F)ccc1-c1cc(C(C)(C)C(=O)O)ccc1OC)C(=O)OCc1ccccc1 [Compound 1-116, 2-{2′-[(Benzyloxycarbonyl-ethyl-amino)-methyl]-6-methoxy-4′-trifluoromethyl-biphenyl-3-yl}-2-methyl-propionic acid]
18 | 0.3 to 1 | 0.3 to 1 | CCN(Cc1cc(C(F)(F)F)ccc1-c1ccc(C(F)(F)F)c(CC(=O)O)c1)C(=O)OCc1ccccc1 [Compound 1-124, {2′-[(Benzyloxycarbonyl-ethyl-amino)-methyl]-4,4′-bis-trifluoromethyl-biphenyl-3-yl}-acetic acid]
19 | 1 to 30 | 1 to 30 | CCN(Cc1cc(C(F)(F)F)ccc1-c1cc(C(F)(F)C(=O)O)ccc1OC)C(=O)OCc1ccccc1 [Compound 1-132, {2′-[(Benzyloxycarbonyl-ethyl-amino)-methyl]-6-methoxy-4′-trifluoromethyl-biphenyl-3-yl}-difluoro-acetic acid]
20 | 1 to 30 | < 0.3 | CCN(Cc1cc(C(F)(F)F)ccc1-c1cc(Cl)cc(CC(=O)O)c1)C(C)=O [Compound 1-137, {2′-[(Acetyl-ethyl-amino)-methyl]-5-chloro-4′-trifluoromethyl-biphenyl-3-yl}-acetic acid]
21 | 1 to 30 | < 0.3 | CCN(Cc1cc(C(F)(F)F)ccc1-c1cc(CC(=O)O)cc(C(F)(F)F)c1)C(C)=O [Compound 1-138, {2′-[(Acetyl-ethyl-amino)-methyl]-5,4′-bis-trifluoromethyl-biphenyl-3-yl}-acetic acid]
22 | 1 to 30 | < 0.3 | CCN(Cc1cc(C(F)(F)F)ccc1-c1cc(CC(=O)O)ccc1OC)C(=O)NCc1ccccn1 [Compound 1-139, [2′-(1-Ethyl-3-pyridin-2-ylmethyl-ureidomethyl)-6-methoxy-4′-trifluoromethyl-biphenyl-3-yl]-acetic acid]
23 | 1 to 30 | < 0.3 | CCN(Cc1cc(C(F)(F)F)ccc1-c1cc(CC(=O)O)ccc1OC)C(=O)NCc1ccc(Cl)cc1 [Compound 1-140, {2′-[3-(4-Chloro-benzyl)-1-ethyl-ureidomethyl]-6-methoxy-4′-trifluoromethyl-biphenyl-3-yl}-acetic acid]
24 | 0.3 to 1 | < 0.3 | CCN(Cc1cc(C(F)(F)F)ccc1-c1cc(CC(=O)O)ccc1-c1ccccc1)C(=O)OCc1ccccc1 [Compound 1-144, {2″-[(Benzyloxycarbonyl-ethyl-amino)-methyl]-4″-trifluoromethyl-[1,1′;2′,1″]terphenyl-4′-yl}-acetic acid]
